Experimental data published in patent US12268683B2, “Compounds and methods for synergistic activation of M channels” (THE REGENTS OF THE UNIVERSITY OF CALIFORNIA, priority 2018, dated 2025).

Key:
KCNQ1 = KCNQ1 (Homo sapiens, UniProt P51787); test: TEVC of homomeric KCNQ1 expressed in Xenopus oocytes; format: cell-based
KCNQ2-W236L/KCNQ3-W265L = KCNQ2-W236L/KCNQ3-W265L (Homo sapiens, UniProt O43525+O43526, W236L/W265L); test: TEVC of double-mutant WL/WL KCNQ2/3 channels; format: cell-based
Excerpt: cRNA transcripts encoding human KCNA1, KCNQ1, KCNQ2, KCNQ3, KCNQ4, or KCNQ5 were generated by in vitro transcription using the T7 polymerase message machine kit (Thermo Fisher Scientific), after vector linearization, from cDNA sub-cloned into plasmids incorporating X. laevis β-globin 5′ and 3′ UTRs flanking the coding region to enhance translation and cRNA stability. cRNA was quantified by spectrophotometry. Mutant cDNAs were generated by site-directed mutagenesis using a QuikChange kit according to manufacturer's protocol (Stratagene, San Diego, Calif.) and corresponding cRNAs prepared as above. Defolliculated stage V and VI X. laevis oocytes (Ecocyte Bioscience, Austin, Tex.) were injected with Kv channel a subunit cRNAs (10 ng total per oocyte). Oocytes were incubated at 16° C. in Barth's saline solution (Ecocyte) containing penicillin and streptomycin, with daily washing, for 3-5 days prior to two-electrode voltage-clamp (TEVC) recording.
TEVC recording was performed at room temperature with an OC-725C amplifier (Warner Instruments, Hamden, Conn.) and pClamp10.2 software (Molecular Devices, Sunnyvale, Calif.) 3-5 days after cRNA injection as described in the section above. Oocytes were placed in a small-volume oocyte bath (Warner) and viewed with a dissection microscope. Chemicals were sourced from Sigma. Bath solution was (in mM): 96 NaCl, 4 KCl, 1 MgCl2, 1 CaCl2. 10 HEPES (pH 7.6). […] Currents were recorded in response to pulses between −80 and +40 mV at 20 mV intervals, or a single pulse to +40 mV, from a holding potential of −80 mV, to yield current-voltage relationships, current magnitude, and for quantifying activation rate. […]
cRNA transcripts encoding human KCNQ2, KCNQ3, KCNQ4, KCNQ5 (Kv7.2-Kv7.5) were generated by in vitro transcription using the T7 polymerase mMessage mMachine kit (Thermo Fisher Scientific), after vector linearization, from cDNA sub-cloned into plasmids incorporating Xenopus laevis β-globin 5′ and 3′ UTRs flanking the coding region to enhance translation and cRNA stability. cRNA was quantified by spectrophotometry. […]

[1] = test system: water-injected control oocytes; test: TEVC of water-injected control oocytes (endogenous current, EM); format: cell-based, Xenopus laevis
Protocol: TEVC recording was performed at room temperature with an OC-725C amplifier (Warner Instruments, Hamden, Conn.) and pClamp10.2 software (Molecular Devices, Sunnyvale, Calif.) 3-5 days after cRNA injection as described in the section above. Oocytes were placed in a small-volume oocyte bath (Warner) and viewed with a dissection microscope. Chemicals were sourced from Sigma. Bath solution was (in mM): 96 NaCl, 4 KCl, 1 MgCl2, 1 CaCl2. 10 HEPES (pH 7.6). […] MTX (DMSO), sorbic acid (ethanol), and glutaconic acid (molecular grade H2O) were stored at −20° C. as 1 M stocks. Oleamide was stored as a 1 mM stock in ethanol at 4° C. […] Currents were recorded in response to pulses between −80 and +40 mV at 20 mV intervals, or a single pulse to +40 mV, from a holding potential of −80 mV, to yield current-voltage relationships, current magnitude, and for quantifying activation rate. […]
TEVC recording was performed at room temperature using a OC-725C amplifier (Warner Instruments, Hamden, Conn.) and pClamp8 software (Molecular Devices, Sunnyvale, Calif.) 2-5 days after cRNA injection as described in the section above. […] Currents were recorded in response to pulses between −80 mV and +40 mV at 20 mV intervals, or a single pulse to +40 mV, from a holding potential of −80 mV, to yield current-voltage relationships, current magnitude, and for quantifying activation rate. […]

| Compound | effect on KCNQ1 (in words) (KCNQ1) | reduction of MTX potency (negative shift in voltage dependence) by W/L mutation (KCNQ2-W236L/KCNQ3-W265L; KCNQ2-W236L or KCNQ3-W265L, or both) | effect on endogenous current or EM of water-injected control oocytes [1] | augmentation of WL/WL KCNQ2/3 current (KCNQ2-W236L/KCNQ3-W265L) [%] |
| --- | --- | --- | --- | --- |
| CS(=O)(=O)N(CC(=O)O)c1cccc(F)c1 [3FMSG] | negligible effects |  |  |  |
| CCCCCCCCC/C=C/C=O [(E)-2-dodecenal] | sensitive |  |  |  |
| CC(=O)c1c(O)c(C)c(O)c(Cc2c(O)c3c(c(C(=O)/C=C/c4ccccc4)c2O)OC(C)(C)C=C3)c1O [MTX, mallotoxin] |  | tenfold | no effect |  |
| NCC1(CC(=O)O)CCCCC1 [gabapentin, reference compound] |  |  | no effect | ≤ 50 |
